{"source": "patent US20080261898A1", "about": "“COMPOSITION AND METHOD FOR CANCER TREATMENT AND PREVENTION” (priority 2007, published 2008)", "key": {"[1]": {"system": "p21", "assay": "p21 expression in xenograft tumor samples, immunoblotting", "format": "in vivo, mouse", "method": "(§1) 8-12 week old athymic nude mice (Jackson Laboratories, Bar Harbor, Me., US) were randomly assigned to Control (n=10) and Treatment (n=10) groups. Tumor xenografts were generated by injecting DU-145 cells (4×10^6) subcutaneously into the mice (Day 1). 1 mg/kg body weight of AC620 or PBS (Control) was administrated to the mice by subcutaneous injection starting at the time of tumor implantation (Day 1) and the mice were treated twice a week. Tumors were measured periodically. At Day 30, the mice were sacrificed. Half of each tumor was processed for immunohistochemical analysis and the other half was frozen for subsequent protein and RNA analysis.\nXenograft mouse model was generated and AC620 or PBS (Control) was administrated to the transplanted mice for 30 days as described above. After the mice were sacrificed, immunoblotting analysis of the tumor samples was performed using Bcl-2 and p21 antibodies as described above."}, "[2]": {"system": "DU-145 cells", "assay": "Cell cycle profile by flow cytometry, DU-145 cells", "format": "cell-based, human", "conditions": "72 hr", "method": "AC620 was incubated with DU-145 cells at various concentrations ([…]) for 72 hr. The cells were then collected and their cell cycle profiles were measured by flow cytometry analysis."}, "[3]": {"system": "CDK1", "assay": "CDK1 expression in xenograft tumor samples, immunoblotting", "format": "in vivo, mouse", "method": "as §1\nXenograft mouse model was generated and AC620 or PBS (Control) was administrated to the transplanted mice for 30 days as described above. After the mice were sacrificed, immunoblotting analysis of the tumor samples was performed using CDK1 and CDK2 antibodies as described above."}, "[4]": {"system": "VEGF RNA", "assay": "VEGF RNA expression in xenograft tumor samples, RT-PCR", "format": "in vivo, mouse", "conditions": "30 days treatment", "method": "as §1\n(§2) Xenograft mouse model was generated and AC620 or PBS (Control) was administrated to the transplanted mice for 30 days as described above. After the mice were sacrificed, immunohistochemical analysis of the tumor samples was performed using VEGF and VEGF R2 antibodies with a semi-automatic system Ventana ES (Ventana Inc, Tucson, Ariz.). The specimens were viewed with an Olympus BX51 microscope. Expression of VEGF in tumor samples at RNA level was measured by RT-PCR."}, "[5]": {"system": "DU-145 cells", "assay": "BrdU based cell proliferation assay, DU-145 cells", "design": "species or system human", "method": "(§3) AC620 was incubated with hormone-refractory prostate cancer cell line DU-145 cells and hormone-responsive prostate cancer cell line LNCaP cells at various concentrations (0, 0.1, 0.5, 1, 5 μM) for 72 hr. LNCaP cells were maintained in RPMI 1640 medium (PAA Laboratories, Pashing, Austria) supplemented with 10% fetal calf serum (FCS) (Sigma, St. Louis, Mo.). The effect of AC620 on proliferation of DU-145 cells and LNCaP cells was determined by using a non-radioactive BrdU based cell proliferation assay kit (Roche, Switzerland) according to manufacturer's protocol. BrdU incorporation into the cellular DNA was determined by measuring the absorbance at 450 nm and 690 nm on an ELISA plate reader.\nas §3, with “0 (Control) and” for “various concentrations (0, 0.1, 0.5, 1,”, “μM” for “μM)”, “for 24, 48 and” for “for”, “hr.” for “hr. LNCaP cells were maintained in RPMI 1640 medium (PAA Laboratories, Pashing, Austria) supplemented with 10% fetal calf serum (FCS) (Sigma, St. Louis, Mo.).”"}, "[6]": {"system": "HT-29 cells", "assay": "Apoptosis, Annexin V, HT-29 cells", "format": "cell-based", "conditions": "72 hr", "method": "AC620 was incubated with DU-145 cells and LNCaP cells at various concentrations (0, 0.1, 0.5, 1, 5 μM) for 72 hr. The effect of AC620 on apoptosis of DU-145 cells and LNCaP cells was assessed. The cells were washed in 1×PBS and resuspended in binding buffer (0.01M Hepes pH 7.4, 0.14M NaCl, 2.5 mM CaCl2), stained with Annexin V conjugated with APC (Pharmingen) and then subjected to flow cytometry analysis using FACS Caliber (BD Biosciences, San Jose, Calif.).\nAC620 was incubated with metastatic colorectal cancer cell line HT-29 cells at various concentrations (0, 0.1, 0.5, 1, 4 μM) for 72 hr. The effect of AC620 on apoptosis of HT-29 cells was assessed by Annexin V stating as described above."}, "[7]": {"system": "VEGF", "assay": "VEGF expression in xenograft tumor samples, immunohistochemistry", "format": "in vivo, mouse", "conditions": "1 mg/kg s.c. twice a week, 30 days", "method": "as §1, §2"}, "[8]": {"system": "VEGF", "assay": "VEGF expression in DU-145 cells, immunoblotting", "format": "cell-based, human", "method": "AC620 was dissolved in ethanol and then added to cultured DU-145 cells, a hormone-refractory, metastatic prostate cancer cell line. The concentrations tested were 0, 0.1, 0.5, 1 and 4 μM, and the cells were grown for 72 hr. Cells treated with ethanol for the same time period were used as Control. DU-145 cells were maintained in RPMI 1640 medium (PAA Laboratories, Pashing, Austria) supplemented with 10% fetal calf serum (FCS) (Sigma, St. Louis, Mo.). After 72 hr treatment, cell Tysates were collected and immunoblotting was performed. The membranes were probed with primary antibodies against VEGF and actin (Santa Cruz Biotechnology, Santa Cruz, Calif.) followed by horseradish peroxidase (HRP)-conjugated secondary antibodies (Amersham Life Science, Alesbury, U.K.) and visualized using the Enhanced Chemi-Luminescence detection system (ECL) and ECL films (Amersham Pharmacia Biotech)."}, "[9]": {"system": "DU-145 cells", "assay": "Viable cells, Annexin-V staining and flow cytometry, DU-145 cells", "format": "cell-based, human", "conditions": "72 hr", "method": "AC620 was incubated with DU-145 cells, LNCaP cells and primary human prostate endothelial cells at high concentrations (0, 5, 100, 500, 1000 μM) for 72 hr. The number of viable cells was measured by Annexin-V staining followed by flow cytometry analysis."}, "[10]": {"system": "DU-145 tumor xenografts", "assay": "Tumor growth in DU-145 xenograft mouse model", "format": "in vivo", "conditions": "for decrease of tumor size: athymic nude mice, DU-145 xenograft", "method": "as §1"}}, "data": [{"compound": "CC1OC(OCC2OC(Oc3c(-c4ccc(O)c(O)c4)oc4cc(O)c(O)cc4c3=O)C(O)C(O)C2O)C(O)C(O)C1O", "note": "(stereo not shown) [AC620]", "values": [{"measurement": "p21 expression reduced in tumor samples", "setting": "[1]; Treatment 3", "result": 60, "unit": "%"}, {"measurement": "p21 expression reduced in tumor samples", "setting": "[1]; Treatment 4", "result": 90, "unit": "%"}, {"measurement": "G1 phase cell cycle arrest", "setting": "[2]; 0.1 μm", "result": 0, "unit": "%"}, {"measurement": "G1 phase cell cycle arrest", "setting": "[2]; 0.5 μm", "result": 4, "unit": "%"}, {"measurement": "G1 phase cell cycle arrest", "setting": "[2]; 1 μm", "result": 18, "unit": "%"}, {"measurement": "G1 phase cell cycle arrest", "setting": "[2]; 5 μm", "result": 32, "unit": "%"}, {"measurement": "reduction of CDK1 expression in tumor samples", "setting": "[3]; Treatment 1", "result": "approximately 80%"}, {"measurement": "reduction of CDK1 expression in tumor samples", "setting": "[3]; Treatment 2", "result": "> 95", "unit": "%"}, {"measurement": "reduction of CDK1 expression in tumor samples", "setting": "[3]; Treatment 3", "result": "~90", "unit": "%"}, {"measurement": "reduction of CDK1 expression in tumor samples", "setting": "[3]; Treatment 4", "result": "approximately 80%"}, {"measurement": "estimated decrease of VEGF RNA expression level in tumor samples", "setting": "[4]", "result": "~90", "unit": "%"}, {"measurement": "decrease in cell proliferation of DU-145 cells", "setting": "[5]; 5 μM, after 24 hr", "result": 6, "unit": "%"}, {"measurement": "decrease in cell proliferation of DU-145 cells", "setting": "[5]; 5 μM, after 48 hrs", "result": 31, "unit": "%"}, {"measurement": "decrease in cell proliferation of DU-145 cells", "setting": "[5]; 5 μM, after 72 hr (time study)", "result": 86, "unit": "%"}, {"measurement": "decrease in cell proliferation of DU-145 cells", "setting": "[5]; 0.1 μm, 72 hr", "result": 37, "unit": "%"}, {"measurement": "decrease in cell proliferation of DU-145 cells", "setting": "[5]; 0.5 μm, 72 hr", "result": 58, "unit": "%"}, {"measurement": "decrease in cell proliferation of DU-145 cells", "setting": "[5]; 1 μm, 72 hr", "result": 72, "unit": "%"}, {"measurement": "decrease in cell proliferation of DU-145 cells", "setting": "[5]; 5 μm, 72 hr (dose study)", "result": 84, "unit": "%"}, {"measurement": "apoptosis increased, HT-29 cells", "setting": "[6]; 0.1 μm", "result": 10, "unit": "%"}, {"measurement": "apoptosis increased, HT-29 cells", "setting": "[6]; 0.5 μm", "result": 87, "unit": "%"}, {"measurement": "apoptosis increased, HT-29 cells", "setting": "[6]; 1 μm", "result": 220, "unit": "%"}, {"measurement": "apoptosis increased, HT-29 cells", "setting": "[6]; 5 μm", "result": 267, "unit": "%"}, {"measurement": "expression of VEGF in tumors", "setting": "[7]", "result": "completely abolished"}, {"measurement": "reduced VEGF expression", "setting": "[8]; 0.1 μm AC620, 72 hr", "result": "approximately 40%"}, {"measurement": "reduced VEGF expression", "setting": "[8]; 0.5 μm AC620, 72 hr", "result": "approximately 60%"}, {"measurement": "reduced VEGF expression", "setting": "[8]; 1 μm AC620, 72 hr", "result": "approximately 80%"}, {"measurement": "reduced VEGF expression", "setting": "[8]; 4 μm AC620, 72 hr", "result": "over 95%"}, {"measurement": "viable DU-145 cells decreased", "setting": "[9]; 5 μm", "result": 67, "unit": "%"}, {"measurement": "viable DU-145 cells decreased", "setting": "[9]; 100 μm", "result": 93, "unit": "%"}, {"measurement": "viable DU-145 cells decreased", "setting": "[9]; 500 μm", "result": 94, "unit": "%"}, {"measurement": "viable DU-145 cells decreased", "setting": "[9]; 1000 μm", "result": 97, "unit": "%"}, {"measurement": "tumor growth compared to Control", "setting": "[10]; 1 mg/kg subcutaneous twice a week, P<0.03", "result": "significantly reduced"}, {"measurement": "decrease of tumor size", "setting": "[10]; Day 19, 1 mg/kg subcutaneous twice a week", "result": 47, "unit": "%"}, {"measurement": "decrease of tumor size", "setting": "[10]; Day 22, 1 mg/kg subcutaneous twice a week", "result": 37, "unit": "%"}, {"measurement": "decrease of tumor size", "setting": "[10]; Day 25, 1 mg/kg subcutaneous twice a week", "result": 24, "unit": "%"}, {"measurement": "decrease of tumor size", "setting": "[10]; Day 29, 1 mg/kg subcutaneous twice a week", "result": 13, "unit": "%"}, {"measurement": "morphology of tumor samples compared to Control group", "setting": "[10]; immunohistochemical specimens, 30 days treatment", "result": "more differentiated morphology"}]}]}
